Reference: article PMC3715890, “A Cyclic Peptide Inhibitor of HIF-1 Heterodimerization That Inhibits Hypoxia Signaling in Cancer Cells” (Journal of the American Chemical Society, 2013)

Key:
Type in all cases: cell-based, human
[1] = system: VEGF protein in hypoxic MCF-7 cells; assay: VEGF protein ELISA, MCF-7; conditions: MCF-7, hypoxia, 100 μM
Description: (§1) Cells were treated with the stated concentrations of inhibitor (P1, P2, or P3) and incubated in normoxia for 4 h, followed by incubation in a hypoxic environment. All manipulation of cell pellets (e.g., lysis, mRNA, and protein extraction) was conducted in a hypoxic environment. […]
(§2) manufacturer’s instructions.
(§3) The loaded beads were washed and blocked with the provide buffers. […]
(§4) reagent (RPN2232, GE Healthcare).
(§5) Fluorescent binding assay
(§6) Scientific, catalogue no. […]
(§7) followed by washing with 3 × 200 µL ELISA buffer. 95 µL of EMSA buffer was added to […]
(§8) The fluorescence of each well at
(§9) Isothermal Titration Calorimetry […]
(§10) iTC200 system (GE Healthcare).
(§11) P2) was dissolved in the same buffer.
(§12) Control experiments for P1 or P2
(§13) Quantification of VGEF-A protein by ELISA […]
(§14) incubation in hypoxia for 16h. VEGF-A protein concentration was quantified by human

[2] = system: CAIX mRNA in hypoxic U2OS cells; assay: CAIX mRNA qPCR, U2OS; conditions: hypoxia, 100 μM
Description: Cells were treated with the stated concentrations of inhibitor (P1, P2, or P3) and incubated in normoxia for 4 h, followed by incubation in a hypoxic environment. All manipulation of cell pellets (e.g., lysis, mRNA, and protein extraction) was conducted in a hypoxic environment.
Total RNA was extracted from MCF-7 and U2OS cells using RNeasy Mini Kit (74104, QIAGEN) and quantified using a Nanodrop ND-1000 spectrophotometer. Complementary DNA was synthesized in a 20 μL reaction containing 1 μg of total RNA, using qScript cDNA SuperMix (95048-100, Quanta Biosciences) according to the manufacturer’s instructions. Quantitative real-time PCRs were performed using Universal Taqman PCR master mix (Applied Biosystems) >and the Taqman gene expression assay of interest (Applied Biosystems) on an ABI StepOnePlus Real-Time PCR system (Applied Biosystems). Expression assays used in this study were HIF-1α (00936376_m1), VEGF-A (Hs00173626_m1), CAIX (Hs00154208_m1), LOX (Hs00942480_m1), HIF2α (Hs01026149_m1), CITED2 (Hs01897804_s1), and 18S (Hs99999901_m1). All expression values were normalized using expression of 18S.

[3] = system: VEGF protein in hypoxic U2OS cells; assay: VEGF protein ELISA, U2OS; conditions: hypoxia, 100 μM
Description: as §1, §2, §3, §4, §5, §6, §7, §8, §9, §10, §11, §12, §13, §14

## Tat-cyclo-CRLMVL (head to tail) [P2, cyclo-CRLMVL tagged with Tat peptide via a disulfide bond; used as negative control]
[1]
  VEGF protein level: has no effect in either cell line
[2]
  CAIX mRNA: no effect
[3]
  VEGF protein level: has no effect in either cell line
